Earlier results in US20060234982A1 (priority 2003, published 2006).

Columns and labels:
HBV = details: variety of cell types
[1] = not given; remark: listed apart in the source
HIV-1 = details: in vitro, with recombinant soluble CD4, castanospermine or recombinant interferon-α
[2] = relative to tenofovir, HIV in culture

Question: With C[C@H](Cn1cnc2c(N)ncnc21)OCP(=O)(O)O [Tenofovir, (R)-9-(2-phosphonylmethoxypropyl)adenine] as the molecule, how does the pKa read?
Answer: 3.8

Question: For CC(C)OC(=O)[C@H](C)N[P@](=O)(CO[C@H](C)Cn1cnc2c(N)ncnc21)Oc1ccccc1 [GS-7340, 9-[(R)-2-[[(S)-[[(S)-1-(isopropoxycarbonyl)ethyl]amino]phenoxyphosphinyl]methoxy]propyl]adenine], which “fold more effective than tenofovir against HIV in culture” value (HIV; [2]) is on record?
Answer: 100 fold

Question: And the “times more effective than tenofovir against HIV in culture” value (HIV; [2])?
Answer: 1000 times

Question: What about the “S-configuration (at phosphorus) diastereomer more effective than R-configuration diastereomer” value (HIV; relative to the diastereomer with R-configuration at P) of the same molecule?
Answer: 10 fold

Question: And the “effectiveness against HIV in vitro” value (HIV; variety of cell types)?
Answer: effective

Question: What about the “effectiveness against HBV in vitro” value (HBV) of the same molecule?
Answer: effective

Question: What about the “hydrolysis in lymphatic tissue” value ([1]; dogs and rhesus monkeys) of the same molecule?
Answer: selectively hydrolyzed inside lymphatic tissue

Question: What about the plasma stability ([1]; dogs and rhesus monkeys) of the same molecule?
Answer: stable in plasma

Question: What about the oral bioavailability ([1]; dogs and rhesus monkeys, oral) of the same molecule?
Answer: 20%

Question: What about the tissue distribution ([1]; in vivo and in vitro characterization, selective intracellular activation) of the same molecule?
Answer: preferential distribution in lymphatic tissues

Question: Which “antiviral activity in combination” value (HIV-1) does the source give for Cc1cn([C@H]2C[C@H](N=[N+]=[N-])[C@@H](CO)O2)c(=O)[nH]c1=O [AZT, 3′-azido, 3′-deoxythymidine] here?
Answer: synergistic antiviral activity
